Measured values published in patent US8709406B2, “Prevention and treatment of oxidative stress disorders by gluthathione and phase II detoxification enzymes” (Brassica Foundation for ChemoProtection Research, priority 2001, dated 2014).
Where two headings read alike, the source gives them in different places.

How the values were obtained:
ARPE-19 cells = assay: Oxidant cytotoxicity (MTT viability, median effect analysis) and protection by 24 h sulforaphane pretreatment; format: cell-based, human; settings: ARPE-19; for Dm of menadione: Example 3; for Dm of menadione / Dm (median effect concentration) of menadione / m (slope of median effect plot) for menadione: menadione 2 h; for Dm (median effect concentration) of tert-butyl hydroperoxide / m (slope of median effect plot) for tert-butyl hydroperoxide: tert-butyl hydroperoxide 16 h
Description: All experiments were performed in 96-well microliter plates. ARPE-19 and HaCaT cells were seeded at 10,000 cells per well and grown for 24 h before addition of sulforaphane, whereas L1210 cells (5,000 cells/well) were not incubated before sulforaphane treatment. Solutions of sulforaphane (5 mM) in dimethyl sulfoxide were diluted with the cognate culture medium to provide final inducer concentrations of 0.16-5.0 μM. The final DMSO concentrations were 0.1% by volume.
Tert-Butyl hydroperoxide (1 M) and 4-hydroxynonenal (25 mM) were dissolved in DMSO and diluted 1000-fold with serum-free medium before addition of serial dilutions to the microtiter plate wells. The final concentrations of DMSO were therefore less than 0.1% (by vol.). Menadione sodium bisulfite (0.5 M) and SIN-1 (0.5 M) were dissolved and added in PBS. ARPE-19 cells were exposed to menadione for 2 h and to tert-butyl hydroperoxide for 16 h, washed with PBS, and cell viability was determined by the MIT test. ARPE-19 cells were exposed to peroxynitrite for 2 h and 4-hydroxynonenal for 4 h, and the cells were then incubated in serum-free media for 22 and 20 h, respectively, washed with PBS, and cell viability was determined. The additional incubation periods were required for peroxynitrite and 4-hydroxynonenal to evoke maximal cytotoxicity.
Cell viability was determined by spectroscopic measurement of the reduction of MTT (Carmichael, J., DeGraff, W. G., Gazdar, A. F., Minna, J. D. & Mitchell, J. B. (1987) Cancer Res. 47, 936-942). The culture media were discarded after the designated incubation periods, the cells were washed three times with PBS by use of a microtiter plate washer (Ultrawash Plus, Dynex Technologies, Chantilly, Va.). Each well then received 150 μl of an MTT solution (0.5 mg/ml) in serum-free medium. The plates were incubated for 2 h at 37° C., the MTT solution was discarded, 100 μl of DMSO were added to each well, and the plates were shaken at 200 rpm on an orbital shaker for 5 min. The absorbances of the wells were determined at 555 nm with a microtiter plate reader (Spectra Max Plus, Molecular Devices, Sunnyvale, Calif.). The absorbance of reduced MIT was then compared at each inducer and oxidant concentration to that of untreated control cells that received only the vehicle in which sulforaphane (DMSO) and menadione (DMSO or PBS) were dissolved. In each experiment three identical 96-well plates were used and the means of the absorbance values, the standard deviations of these means, and their coefficients of variation were calculated.
Dose-effect analyses were performed according to the Median Effect Equation, by use of a computer program (Chou, T. C. & Hayball, M. (1996) CalcuSyn for Windows 3.1 and 95: multiple dose effect analyzer and manual for IBM-PC, Biosoft, Cambridge, U.K). The equation: fa/fu=[D/Dm]^m, where fa is the fraction of cells affected by the oxidant, fu is the fraction unaffected (i.e., 1-fa), D is the dose of oxidant required to produce the effect fa, Dm is the concentration of oxidant required to produce a 50% effect, i.e., when fa=fu, and the slope m is a measure of the sigmoidicity of the dose-response curve, and is therefore a measure of cooperativity. The results are analyzed by plotting log(fa/fu) with respect to log D of the oxidant. The computer program provides the slope (m) of the curves, and the goodness of fit (r^2) to linearity.

quinone reductase = settings: ARPE-19
Description: (§1) Cells were lysed by addition of a digitonin solution (0.8 mg/ml digitonin in 2 mM EDTA, pH 7.8), incubated at 37° C. for 20 min, gently shaken for 20 min at 25° C., and centrifuged at 1,500×g for 20 min at 4° C.
All measurements were made in 96-well microtiter plates at 25° C., and reaction rates were monitored with a microtiter plate reader. The QR activities of supernatant fractions were determined by procedures developed in our laboratory (Fahey, J. W., Zhang, Y. & Talalay, P. (1997) Proc. Natl. Acad. Sci. USA 94, 10367-10372; Prochaska, H. J., Santamaria, A. B. & Talalay, P. (1992) Proc. Natl. Acad. Sci. USA 89, 2394-2398.). Specific activities were obtained by relating the reaction rates to protein concentrations determined with the bicinchoninic acid reagent (Smith, P. K., Krohn, R. I., Hermanson, G. T., Mallia, A. K., Gratner, F. H., Provenzano, M. D., Fujimoto, E. K., Goeke, N. M., Olson, B. J. & Klenk, D. C. (1985) Anal. Biochem. 150, 76-85). […] Glutathione reductase activity was assayed by mixing 50 μl of cell lysate with 25 μl of 1 mM NADPH, 25 μl of GSSG (20 mg/ml), and 150 μl of 50 mM sodium phosphate, pH 7.5. Initial reaction rates were obtained at 340 nm (Carlberg, I. & Mannervik, B. (1985) Methods Enzymol. 113, 484-490).

glutathione = settings: ARPE-19
Description: as §1
Total glutathione (oxidized and reduced) was determined by reduction of 5,5′-dithiobis-2-nitrobenzoic acid (DTNB) in a glutathione reductase-coupled assay in 96-well microliter plates (Ritchie, J. P., Jr., Skowronski, L., Abraham, P. & Leutzinger, Y. (1996) Clin. Chem. 42, 64-70). Briefly, 30 μl of lysates were mixed with 60 μl of cold 2.5% metaphosphoric acid, stored at 4° C. for 10 min, and centrifuged for 20 min at 1,500×g at 4° C. […] After 5 min incubation at 25° C., 50 μl of 0.72 mM NADPH were added to each well, and the initial reaction rates were determined at 412 nm. Calibration curves for pure GSH were included in each assay.

[1] = after sulforaphane 0.63 μM 24 h
[2] = after sulforaphane 1.25 μM 24 h
[3] = after sulforaphane 2.50 μM 24 h
[4] = after sulforaphane 5.00 μM 24 h

**Q.** For `C[S+]([O-])CCCCN=C=S` (stereo not shown) [Sulforaphane], which “m (slope of median effect plot) for 4-hydroxynonenal” value (ARPE-19 cells; 4-hydroxynonenal 4 h, after sulforaphane 0.63 μM 24 h) is on record?
**A.** The value was 2.51.

**Q.** What about the EC50 (ARPE-19 cells; 4-hydroxynonenal 4 h, after sulforaphane 0.63 μM 24 h, read-out: Dm (median effect concentration) of 4-hydroxynonenal) of the same molecule?
**A.** The EC50 was 14.1 µM.

**Q.** What about the “m (slope of median effect plot) for 4-hydroxynonenal” value (ARPE-19 cells; 4-hydroxynonenal 4 h, after sulforaphane 1.25 μM 24 h) of the same molecule?
**A.** Its value is 2.78.

**Q.** What about the EC50 (ARPE-19 cells; 4-hydroxynonenal 4 h, after sulforaphane 1.25 μM 24 h, read-out: Dm (median effect concentration) of 4-hydroxynonenal) of the same molecule?
**A.** The EC50 was 25.8 µM.

**Q.** What about the “m (slope of median effect plot) for 4-hydroxynonenal” value (ARPE-19 cells; 4-hydroxynonenal 4 h, after sulforaphane 2.50 μM 24 h) of the same molecule?
**A.** The value was 2.51.

**Q.** And the EC50 (ARPE-19 cells; 4-hydroxynonenal 4 h, after sulforaphane 2.50 μM 24 h, read-out: Dm (median effect concentration) of 4-hydroxynonenal)?
**A.** The EC50 was 26.8 µM.

**Q.** And the Dm of menadione (ARPE-19 cells; after sulforaphane 0.625 μM 24 h)?
**A.** Its Dm of menadione is 69.2 µM.

**Q.** And the Dm of menadione (ARPE-19 cells; after sulforaphane 2.5 μM 24 h)?
**A.** The Dm of menadione was 94.5 µM.

**Q.** What about the “degree of protection against different oxidants” value (ARPE-19 cells; comparable concentrations of sulforaphane) of the same molecule?
**A.** Its value is 2- to 3 fold.

**Q.** What about the “Dm (median effect concentration) of menadione” value (ARPE-19 cells; [1]) of the same molecule?
**A.** Its value is 98.6 µM.

**Q.** And the “m (slope of median effect plot) for menadione” value (ARPE-19 cells; [1])?
**A.** Its value is 3.69.

**Q.** What about the “Dm (median effect concentration) of menadione” value (ARPE-19 cells; [2]) of the same molecule?
**A.** The value was 110 µM.

**Q.** And the “m (slope of median effect plot) for menadione” value (ARPE-19 cells; [2])?
**A.** The value was 3.49.

**Q.** And the “Dm (median effect concentration) of menadione” value (ARPE-19 cells; after sulforaphane 1.25 μM 24 h, listed as sulforaphane)?
**A.** Its value is 109.9 µM.

**Q.** What about the “Dm (median effect concentration) of menadione” value (ARPE-19 cells; [3]) of the same molecule?
**A.** The value was 123 µM.

**Q.** What about the “m (slope of median effect plot) for menadione” value (ARPE-19 cells; [3]) of the same molecule?
**A.** Its value is 3.58.

**Q.** And the “Dm (median effect concentration) of menadione” value (ARPE-19 cells; after sulforaphane 2.50 μM 24 h, listed as sulforaphane)?
**A.** Its value is 122.9 µM.

**Q.** And the “Dm (median effect concentration) of menadione” value (ARPE-19 cells; [4])?
**A.** The value was 134 µM.

**Q.** What about the “m (slope of median effect plot) for menadione” value (ARPE-19 cells; [4]) of the same molecule?
**A.** Its value is 3.12.

**Q.** And the “Dm (median effect concentration) of menadione” value (ARPE-19 cells; after sulforaphane 5.00 μM 24 h, listed as sulforaphane)?
**A.** The value was 134.2 µM.

**Q.** And the “m (slope of median effect plot) for peroxynitrite” value (ARPE-19 cells; peroxynitrite (from SIN-1) 2 h, after sulforaphane 0.63 μM 24 h)?
**A.** Its value is 6.30.

**Q.** And the EC50 (ARPE-19 cells; peroxynitrite (from SIN-1) 2 h, after sulforaphane 0.63 μM 24 h, read-out: Dm (median effect concentration) of peroxynitrite)?
**A.** The EC50 was 2780 µM.

**Q.** What about the “m (slope of median effect plot) for peroxynitrite” value (ARPE-19 cells; peroxynitrite (from SIN-1) 2 h, after sulforaphane 1.25 μM 24 h) of the same molecule?
**A.** Its value is 6.19.

**Q.** What about the EC50 (ARPE-19 cells; peroxynitrite (from SIN-1) 2 h, after sulforaphane 1.25 μM 24 h, read-out: Dm (median effect concentration) of peroxynitrite) of the same molecule?
**A.** Its EC50 is 2820 µM.

**Q.** What about the “m (slope of median effect plot) for peroxynitrite” value (ARPE-19 cells; peroxynitrite (from SIN-1) 2 h, after sulforaphane 2.50 μM 24 h) of the same molecule?
**A.** The value was 6.62.

**Q.** And the EC50 (ARPE-19 cells; peroxynitrite (from SIN-1) 2 h, after sulforaphane 2.50 μM 24 h, read-out: Dm (median effect concentration) of peroxynitrite)?
**A.** The EC50 was 2890 µM.

**Q.** What about the “time for which protection against menadione toxicity is maintained or exceeded after 24-h induction” value (ARPE-19 cells; sulforaphane 0.625 and 2.5 μM 24 h, then serum-free culture) of the same molecule?
**A.** Its value is “at least 3 days”.

**Q.** What about the “Dm (median effect concentration) of tert-butyl hydroperoxide” value (“Dm … of tert-butyl hydroperoxide” below) (ARPE-19 cells; [1]) of the same molecule?
**A.** The value was 140 µM.

**Q.** What about the “m (slope of median effect plot) for tert-butyl hydroperoxide” value (ARPE-19 cells; [1]) of the same molecule?
**A.** Its value is 2.17.

**Q.** What about the “Dm … of tert-butyl hydroperoxide” value (ARPE-19 cells; [2]) of the same molecule?
**A.** The value was 163 µM.

**Q.** What about the “m (slope of median effect plot) for tert-butyl hydroperoxide” value (ARPE-19 cells; [2]) of the same molecule?
**A.** Its value is 1.79.

**Q.** And the “Dm … of tert-butyl hydroperoxide” value (ARPE-19 cells; [3])?
**A.** The value was 165 µM.

**Q.** What about the “m (slope of median effect plot) for tert-butyl hydroperoxide” value (ARPE-19 cells; [3]) of the same molecule?
**A.** Its value is 1.26.

**Q.** What about the “specific activities of QR in cytosols” value (quinone reductase; sulforaphane 0-5.0 μM 24 h) of the same molecule?
**A.** The value was “rose with exposure to increasing concentrations of sulforaphane”.

**Q.** What about the “specific activity of QR after removal of sulforaphane” value (quinone reductase; sulforaphane 0.625 and 2.5 μM 24 h, then medium without inducer) of the same molecule?
**A.** The value was “continued to rise for 48 h after removal of sulforaphane”.

**Q.** And the “concentrations of GSH in cytosols” value (glutathione; sulforaphane 0-5.0 μM 24 h)?
**A.** Its value is “rose with exposure to increasing concentrations of sulforaphane”.

**Q.** And the “increase of GSH levels” value (glutathione; sulforaphane 2.5 μM 24 h)?
**A.** Its value is “about 50%”.
